The subject of this experiment is CD2F1 mice, L1210 leukemia ip, survival T/C. As to the kind of experiment: NCI In Vivo Anticancer Drug Screen. Data for tumor model L1210 Leukemia (intraperitoneal) in CD2F1 (CDF1) mice. As to conditions: endpoint: mean survival time, higher = longer survival. An outline of the steps: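 Each value reflects a quotient of treated over vehicle control outcomes in mice with a transplanted tumor.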

Where “and” joins values, the source holds several entries; their conditions need not be identical. Equal values may be shown once. Inconclusive results and toxic doses are left out.

For the compound `Nc1nncs1`, the T/C is, setting by setting: (dose: 1.0 mg/kg/injection, schedule: Q01DX005 (ip), vehicle: water) 94 % of control; (dose: 2.0 mg/kg/injection, schedule: Q01DX005 (ip), vehicle: water) 96 % of control; (dose: 4.0 mg/kg/injection, schedule: Q01DX005 (ip), vehicle: water) 96 % of control; (dose: 8.0 mg/kg/injection, schedule: Q01DX005 (ip), vehicle: water) 98 % of control; (dose: 8.0 mg/kg/injection, schedule: Q03HX008 (ip), vehicle: alkali diluted with saline) 123 % of control; (dose: 8.0 mg/kg/injection, schedule: Q03HX016 (ip), vehicle: alkali diluted with saline) 116 % of control. The T/C (dose: 8.0 mg/kg/injection, schedule: Q03HX024 (ip), vehicle: alkali diluted with saline) is 152 % of control; the T/C (dose: 8.0 mg/kg/injection, schedule: Q03HX024 (ip), vehicle: saline) was 153 % of control; the T/C (dose: 16.0 mg/kg/injection, schedule: Q01DX005 (ip), vehicle: water) was 108 % of control; the T/C (dose: 16.0 mg/kg/injection, schedule: Q01DX005 (iv), vehicle: alkali diluted with saline) was 110 % of control; the T/C (dose: 16.0 mg/kg/injection, schedule: Q01DX009 (oral), vehicle: other) is 108 % of control; the T/C (dose: 16.0 mg/kg/injection, schedule: Q03HX024 (ip), vehicle: alkali diluted with saline) is 194 % of control. In addition, the T/C is, setting by setting: (dose: 23.4 mg/kg/injection, schedule: Q04DX003 (ip), vehicle: water) 103 % of control; (dose: 32.0 mg/kg/injection, schedule: Q01DX001 (iv), vehicle: alkali diluted with saline) 107 % of control; (dose: 32.0 mg/kg/injection, schedule: Q01DX009 (ip), vehicle: other) 123 % of control; (dose: 32.0 mg/kg/injection, schedule: Q01DX009 (ip), vehicle: saline with Tween-80) 120 % of control; (dose: 32.0 mg/kg/injection, schedule: Q01DX009 (oral), vehicle: other) 107 % of control; (dose: 32.0 mg/kg/injection, schedule: Q03HX008 (ip), vehicle: saline) 120 % of control. Further, the T/C is, setting by setting: (dose: 32.0 mg/kg/injection, schedule: Q03HX024 (ip), vehicle: saline) 104 % of control; (dose: 32.0 mg/kg/injection, schedule: Q04DX003 (ip), vehicle: alkali diluted with saline) 111 % of control; (dose: 32.0 mg/kg/injection, schedule: Q04DX003 (ip), vehicle: other) 106 % of control; (dose: 39.0 mg/kg/injection, schedule: Q04DX003 (ip), vehicle: water) 117 % of control and 105 % of control; (dose: 50.0 mg/kg/injection, schedule: Q04DX003 (ip), vehicle: water) 106 % of control; (dose: 62.5 mg/kg/injection, schedule: Q04DX003 (ip), vehicle: water) 103 % of control and 107 % of control. The T/C reads like this: (dose: 64.0 mg/kg/injection, schedule: Q01DX001 (ip), vehicle: alkali diluted with saline) 112 % of control; (dose: 64.0 mg/kg/injection, schedule: Q01DX001 (ip), vehicle: other) 109 % of control; (dose: 64.0 mg/kg/injection, schedule: Q01DX001 (iv), vehicle: alkali diluted with saline) 112 % of control; (dose: 64.0 mg/kg/injection, schedule: Q01DX001 (oral), vehicle: alkali diluted with saline) 111 % of control; (dose: 64.0 mg/kg/injection, schedule: Q01DX001 (oral), vehicle: other) 94 % of control; (dose: 64.0 mg/kg/injection, schedule: Q01DX001 (sc), vehicle: alkali diluted with saline) 115 % of control. Moreover, the T/C is, setting by setting: (dose: 64.0 mg/kg/injection, schedule: Q01DX009 (ip), vehicle: other) 103 % of control; (dose: 64.0 mg/kg/injection, schedule: Q01DX009 (ip), vehicle: saline with Tween-80) 104 % of control and 107 % of control; (dose: 64.0 mg/kg/injection, schedule: Q01DX009 (ip), vehicle: saline) 109 % of control; (dose: 64.0 mg/kg/injection, schedule: Q01DX009 (oral), vehicle: other) 86 % of control; (dose: 64.0 mg/kg/injection, schedule: Q03HX024 (ip), vehicle: alkali diluted with saline) 97 % of control; (dose: 64.0 mg/kg/injection, schedule: Q04DX003 (ip), vehicle: other) 123 % of control. Moreover, the T/C reads like this: (dose: 64.0 mg/kg/injection, schedule: Q08DX002 (ip), vehicle: alkali diluted with saline) 114 % of control; (dose: 64.0 mg/kg/injection, schedule: Q08DX002 (ip), vehicle: other) 105 % of control; (dose: 65.0 mg/kg/injection, schedule: Q04DX003 (ip), vehicle: water) 123 % of control; (dose: 100.0 mg/kg/injection, schedule: Q04DX003 (ip), vehicle: water) 119 % of control; (dose: 125.0 mg/kg/injection, schedule: Q04DX003 (ip), vehicle: water) 119 % of control; (dose: 128.0 mg/kg/injection, schedule: Q01DX001 (ip), vehicle: other) 119 % of control. In addition, the T/C is 119 % of control (dose: 128.0 mg/kg/injection, schedule: Q01DX001 (iv), vehicle: alkali diluted with saline); 104 % of control (dose: 128.0 mg/kg/injection, schedule: Q01DX001 (oral), vehicle: other); 120 % of control (dose: 128.0 mg/kg/injection, schedule: Q01DX001 (sc), vehicle: alkali diluted with saline); 96 % of control (dose: 128.0 mg/kg/injection, schedule: Q01DX009 (sc), vehicle: alkali diluted with saline); 124 % of control (dose: 128.0 mg/kg/injection, schedule: Q08DX002 (ip), vehicle: alkali diluted with saline); 116 % of control (dose: 128.0 mg/kg/injection, schedule: Q08DX002 (ip), vehicle: other). For the same compound, the T/C is, setting by setting: (dose: 180.0 mg/kg/injection, schedule: Q04DX003 (ip), vehicle: water) 159 % of control; (dose: 200.0 mg/kg/injection, schedule: Q04DX003 (ip), vehicle: water) 124 % of control; (dose: 250.0 mg/kg/injection, schedule: Q04DX003 (ip), vehicle: water) 156 % of control; (dose: 256.0 mg/kg/injection, schedule: Q01DX001 (ip), vehicle: other) 118 % of control; (dose: 256.0 mg/kg/injection, schedule: Q01DX001 (oral), vehicle: other) 108 % of control; (dose: 256.0 mg/kg/injection, schedule: Q01DX005 (iv), vehicle: alkali diluted with saline) 150 % of control. Moreover, the T/C is 87 % of control (dose: 256.0 mg/kg/injection, schedule: Q01DX009 (ip), vehicle: alkali diluted with saline); 163 % of control (dose: 256.0 mg/kg/injection, schedule: Q04DX003 (ip), vehicle: alkali diluted with saline); 157 % of control (dose: 256.0 mg/kg/injection, schedule: Q04DX003 (ip), vehicle: other); 161 % of control and 176 % of control (dose: 300.0 mg/kg/injection, schedule: Q04DX003 (ip), vehicle: water); 111 % of control (dose: 512.0 mg/kg/injection, schedule: Q01DX001 (oral), vehicle: other); 182 % of control (dose: 512.0 mg/kg/injection, schedule: Q04DX003 (ip), vehicle: alkali diluted with saline). The T/C is, setting by setting: (dose: 512.0 mg/kg/injection, schedule: Q04DX003 (ip), vehicle: other) 168 % of control; (dose: 512.0 mg/kg/injection, schedule: Q08DX002 (ip), vehicle: alkali diluted with saline) 151 % of control; (dose: 833.0 mg/kg/injection, schedule: Q04DX003 (ip), vehicle: water) 182 % of control; (dose: 1024.0 mg/kg/injection, schedule: Q01DX001 (ip), vehicle: other) 122 % of control; (dose: 1024.0 mg/kg/injection, schedule: Q01DX001 (oral), vehicle: alkali diluted with saline) 117 % of control; (dose: 1024.0 mg/kg/injection, schedule: Q01DX001 (oral), vehicle: other) 109 % of control. Moreover, for the setting “dose: 1024.0 mg/kg/injection, schedule: Q08DX002 (ip), vehicle: alkali diluted with saline”, the T/C was 160 % of control.

For `C=CCOCC(O)C[As](=O)(O)c1ccc(Cl)cc1` (stereo unspecified), the T/C is, setting by setting: (dose: 6.25 mg/kg/injection, schedule: Q04DX003 (ip), vehicle: saline with Tween-80) 109 % of control; (dose: 12.5 mg/kg/injection, schedule: Q04DX003 (ip), vehicle: saline with Tween-80) 111 % of control.

Regarding `CC(C)(C=O)CNC(C)(C)C`, the T/C is, setting by setting: (dose: 100.0 mg/kg/injection, schedule: Q04DX003 (ip), vehicle: saline with Tween-80) 105 % of control; (dose: 200.0 mg/kg/injection, schedule: Q04DX003 (ip), vehicle: saline with Tween-80) 96 % of control.

These data come from PubChem BioAssay AID256 (DTP/NCI, 2004).
